Reference: US10487093B2, “Heterocyclic compounds, in particular 2-oxo-4,4,5,5,6,6,7,7-octahydrobenzoxazole derivatives, and their use as antibacterial compounds” (priority 2016, dated 2019)
Values after ≈ are worked out from the molar mass of the structure shown. Where two headings read alike, the source gives them in different places.

Legend:
Type in all cases: cell-based
[1] = system: strains of Propionibacterium acnes; assay: MIC against anaerobes, agar dilution (CLSI), clinical isolates; conditions: Cutibacterium acnes
[2] = system: Bacteroides thetaiotaomicron ATCC 29741; assay: microbe, parasite or virus in culture; conditions: ATCC29741, 48 h, read-out: MIC, B. thetaiotaomicron ATCC
[3] = system: strains of Bacteroides thetaiotaomicron; assay: microbe, parasite or virus in culture
[4] = system: strains of Peptostreptococcus anaerobius; assay: MIC against anaerobes, agar dilution (CLSI), clinical isolates
[5] = system: strains of Peptoniphilus harei; assay: as above; conditions: Peptoniphilus harei, read-out: MIC
[6] = system: Bacteroides fragilis ATCC 25285; assay: MIC against anaerobes, agar dilution (CLSI), reference strain; conditions: ATCC25285, agar dilution, Brucella blood agar, 35° C., 48 h, anaerobic conditions, read-out: MIC, B. fragilis ATCC 25285
[7] = system: strains of Finegoldia magna; assay: MIC against anaerobes, agar dilution (CLSI), clinical isolates; conditions: Finegoldia magna, read-out: MIC
[8] = system: Clostridium difficile ATCC 700057; assay: MIC against anaerobes, agar dilution (CLSI), reference strain; conditions: Clostridioides difficile, ATCC700057, 48 h, read-out: MIC, C. difficile ATCC 700057
[9] = system: strains of Clostridium perfringens; assay: microbe, parasite or virus in culture
[10] = system: strains of Bacteroides fragilis; assay: MIC against anaerobes, agar dilution (CLSI), clinical isolates
[11] = system: strains of Prevotella bivia; assay: as above
[12] = system: strains of Prevotella melaninogenica; assay: as above
[13] = system: strains of Parvimonas micra; assay: as above

In the case of `Cc1ncc([N+](=O)[O-])n1CCO` [MTZ, metronidazole, reference compound], the MIC ([1]; Propionibacterium acnes strain 1) is reported as 16 to 64 µg/mL (≈ 93.5 to 374 µM), the MIC ([1]; Propionibacterium acnes strain 2) is reported as 16 to 64 µg/mL (≈ 93.5 to 374 µM) and the MIC ([1]; Propionibacterium acnes strain 3) is reported as 16 to 64 µg/mL (≈ 93.5 to 374 µM). It also gave an MIC ([1]; Propionibacterium acnes strain 4) of 16 to 64 µg/mL (≈ 93.5 to 374 µM), an MIC ([1]; Propionibacterium acnes strain 5) of 16 to 64 µg/mL (≈ 93.5 to 374 µM) and an MIC ([1]; Propionibacterium acnes strain 6) of 16 to 64 µg/mL (≈ 93.5 to 374 µM). It also gave an MIC ([1]; Propionibacterium acnes strain 7) of 16 to 64 µg/mL (≈ 93.5 to 374 µM), an MIC ([1]; Propionibacterium acnes strain 8) of 16 to 64 µg/mL (≈ 93.5 to 374 µM) and an MIC ([1]; Propionibacterium acnes strain 9) of 16 to 64 µg/mL (≈ 93.5 to 374 µM). The MIC ([1]; Propionibacterium acnes strain 10) was 16 to 64 µg/mL (≈ 93.5 to 374 µM), the MIC ([1]; Propionibacterium acnes strain 11) was 16 to 64 µg/mL (≈ 93.5 to 374 µM) and the MIC ([1]; Propionibacterium acnes strain 12) was 16 to 64 µg/mL (≈ 93.5 to 374 µM). The MIC [2] was 1 to 4 µg/mL (≈ 5.84 to 23.4 µM), the MIC ([3]; Bacteroides thetaiotaomicron strain 1) was less than 1 µg/mL and the MIC ([3]; Bacteroides thetaiotaomicron strain 2) was less than 1 µg/mL. The MIC ([3]; Bacteroides thetaiotaomicron strain 3) was 1 to 4 µg/mL (≈ 5.84 to 23.4 µM), the MIC ([3]; Bacteroides thetaiotaomicron strain 4) was 1 to 4 µg/mL (≈ 5.84 to 23.4 µM) and the MIC ([3]; Bacteroides thetaiotaomicron strain 5) was 1 to 4 µg/mL (≈ 5.84 to 23.4 µM). The MIC ([3]; Bacteroides thetaiotaomicron strain 6) was 1 to 4 µg/mL (≈ 5.84 to 23.4 µM), the MIC ([3]; Bacteroides thetaiotaomicron strain 7) was less than 1 µg/mL and the MIC ([3]; Bacteroides thetaiotaomicron strain 8) was 1 to 4 µg/mL (≈ 5.84 to 23.4 µM). The MIC ([3]; Bacteroides thetaiotaomicron strain 9) was less than 1 µg/mL, the MIC ([3]; Bacteroides thetaiotaomicron strain 10) was 1 to 4 µg/mL (≈ 5.84 to 23.4 µM) and the MIC ([3]; Bacteroides thetaiotaomicron strain 11) was 1 to 4 µg/mL (≈ 5.84 to 23.4 µM). It also gave an MIC ([4]; Peptostreptococcus anaerobius strain 1) of less than 1 µg/mL, an MIC ([4]; Peptostreptococcus anaerobius strain 2) of less than 1 µg/mL and an MIC ([4]; Peptostreptococcus anaerobius strain 3) of less than 1 µg/mL. For the same compound, the MIC ([4]; Peptostreptococcus anaerobius strain 4) was less than 1 µg/mL, the MIC ([4]; Peptostreptococcus anaerobius strain 5) was less than 1 µg/mL and the MIC ([4]; Peptostreptococcus anaerobius strain 6) was less than 1 µg/mL. It also gave an MIC ([4]; Peptostreptococcus anaerobius strain 7) of less than 1 µg/mL, an MIC ([4]; Peptostreptococcus anaerobius strain 8) of less than 1 µg/mL and an MIC ([4]; Peptostreptococcus anaerobius strain 9) of less than 1 µg/mL. It also gave an MIC ([4]; Peptostreptococcus anaerobius strain 10) of less than 1 µg/mL, an MIC ([5]; Peptoniphilus harei strain 1) of 1 to 4 µg/mL (≈ 5.84 to 23.4 µM) and an MIC ([5]; Peptoniphilus harei strain 2) of less than 1 µg/mL. The MIC ([5]; Peptoniphilus harei strain 3) was less than 1 µg/mL, the MIC ([5]; Peptoniphilus harei strain 4) was 1 to 4 µg/mL (≈ 5.84 to 23.4 µM) and the MIC ([5]; Peptoniphilus harei strain 5) was less than 1 µg/mL. For the same compound, the MIC ([5]; Peptoniphilus harei strain 6) was less than 1 µg/mL, the MIC ([5]; Peptoniphilus harei strain 7) was less than 1 µg/mL and the MIC ([5]; Peptoniphilus harei strain 8) was less than 1 µg/mL. It also gave an MIC ([5]; Peptoniphilus harei strain 9) of 1 to 4 µg/mL (≈ 5.84 to 23.4 µM), an MIC ([5]; Peptoniphilus harei strain 10) of less than 1 µg/mL and an MIC ([5]; Peptoniphilus harei strain 11) of less than 1 µg/mL. It also gave an MIC ([5]; Peptoniphilus harei strain 12) of 1 to 4 µg/mL (≈ 5.84 to 23.4 µM), an MIC [6] of less than 1 µg/mL and an MIC ([7]; Finegoldia magna strain 1) of less than 1 µg/mL. For the same compound, the MIC ([7]; Finegoldia magna strain 2) was less than 1 µg/mL, the MIC ([7]; Finegoldia magna strain 3) was 1 to 4 µg/mL (≈ 5.84 to 23.4 µM) and the MIC ([7]; Finegoldia magna strain 4) was less than 1 µg/mL. The MIC ([7]; Finegoldia magna strain 5) was 1 to 4 µg/mL (≈ 5.84 to 23.4 µM), the MIC ([7]; Finegoldia magna strain 6) was 1 to 4 µg/mL (≈ 5.84 to 23.4 µM) and the MIC ([7]; Finegoldia magna strain 7) was 1 to 4 µg/mL (≈ 5.84 to 23.4 µM). For the same compound, the MIC ([7]; Finegoldia magna strain 8) was 1 to 4 µg/mL (≈ 5.84 to 23.4 µM), the MIC ([7]; Finegoldia magna strain 9) was 1 to 4 µg/mL (≈ 5.84 to 23.4 µM) and the MIC ([7]; Finegoldia magna strain 10) was 1 to 4 µg/mL (≈ 5.84 to 23.4 µM). The MIC ([7]; Finegoldia magna strain 11) was 1 to 4 µg/mL (≈ 5.84 to 23.4 µM), the MIC ([7]; Finegoldia magna strain 12) was less than 1 µg/mL and the MIC [8] was less than 1 µg/mL. For the same compound, the MIC ([9]; Clostridium perfringens strain 1) was 1 to 4 µg/mL (≈ 5.84 to 23.4 µM), the MIC ([9]; Clostridium perfringens strain 2) was less than 1 µg/mL and the MIC ([9]; Clostridium perfringens strain 3) was less than 1 µg/mL. The MIC ([9]; Clostridium perfringens strain 4) was less than 1 µg/mL, the MIC ([9]; Clostridium perfringens strain 5) was less than 1 µg/mL and the MIC ([9]; Clostridium perfringens strain 6) was 1 to 4 µg/mL (≈ 5.84 to 23.4 µM). It also gave an MIC ([9]; Clostridium perfringens strain 7) of less than 1 µg/mL, an MIC ([9]; Clostridium perfringens strain 8) of less than 1 µg/mL and an MIC ([9]; Clostridium perfringens strain 9) of less than 1 µg/mL. The MIC ([9]; Clostridium perfringens strain 10) was less than 1 µg/mL, the MIC ([9]; Clostridium perfringens strain 11) was 1 to 4 µg/mL (≈ 5.84 to 23.4 µM) and the MIC ([10]; Bacteroides fragilis strain 1) was less than 1 µg/mL. It also gave an MIC ([10]; Bacteroides fragilis strain 2) of less than 1 µg/mL, an MIC ([10]; Bacteroides fragilis strain 3) of less than 1 µg/mL and an MIC ([10]; Bacteroides fragilis strain 4) of less than 1 µg/mL. The MIC ([10]; Bacteroides fragilis strain 5) was less than 1 µg/mL, the MIC ([10]; Bacteroides fragilis strain 6) was less than 1 µg/mL and the MIC ([10]; Bacteroides fragilis strain 7) was less than 1 µg/mL. The MIC ([10]; Bacteroides fragilis strain 8) was less than 1 µg/mL, the MIC ([10]; Bacteroides fragilis strain 9) was less than 1 µg/mL and the MIC ([10]; Bacteroides fragilis strain 10) was less than 1 µg/mL. The MIC ([10]; Bacteroides fragilis strain 11) was less than 1 µg/mL, the MIC ([10]; Bacteroides fragilis strain 12) was less than 1 µg/mL and the MIC ([11]; Prevotella bivia strain 1) was 1 to 4 µg/mL (≈ 5.84 to 23.4 µM). It also gave an MIC ([11]; Prevotella bivia strain 2) of 1 to 4 µg/mL (≈ 5.84 to 23.4 µM), an MIC ([11]; Prevotella bivia strain 3) of 1 to 4 µg/mL (≈ 5.84 to 23.4 µM) and an MIC ([11]; Prevotella bivia strain 4) of 1 to 4 µg/mL (≈ 5.84 to 23.4 µM). For the same compound, the MIC ([11]; Prevotella bivia strain 5) was 1 to 4 µg/mL (≈ 5.84 to 23.4 µM), the MIC ([11]; Prevotella bivia strain 6) was 1 to 4 µg/mL (≈ 5.84 to 23.4 µM) and the MIC ([11]; Prevotella bivia strain 7) was 1 to 4 µg/mL (≈ 5.84 to 23.4 µM). It also gave an MIC ([11]; Prevotella bivia strain 8) of 1 to 4 µg/mL (≈ 5.84 to 23.4 µM), an MIC ([11]; Prevotella bivia strain 9) of 1 to 4 µg/mL (≈ 5.84 to 23.4 µM) and an MIC ([11]; Prevotella bivia strain 10) of 1 to 4 µg/mL (≈ 5.84 to 23.4 µM). For the same compound, the MIC ([12]; Prevotella melaninogenica strain 1) was less than 1 µg/mL, the MIC ([12]; Prevotella melaninogenica strain 2) was less than 1 µg/mL and the MIC ([12]; Prevotella melaninogenica strain 3) was less than 1 µg/mL. The MIC ([12]; Prevotella melaninogenica strain 4) was less than 1 µg/mL, the MIC ([12]; Prevotella melaninogenica strain 5) was less than 1 µg/mL and the MIC ([12]; Prevotella melaninogenica strain 6) was less than 1 µg/mL. For the same compound, the MIC ([12]; Prevotella melaninogenica strain 7) was less than 1 µg/mL, the MIC ([12]; Prevotella melaninogenica strain 8) was less than 1 µg/mL and the MIC ([12]; Prevotella melaninogenica strain 9) was less than 1 µg/mL. For the same compound, the MIC ([12]; Prevotella melaninogenica strain 10) was less than 1 µg/mL, the MIC ([12]; Prevotella melaninogenica strain 11) was less than 1 µg/mL and the MIC ([13]; Parvimonas micra strain 1) was 1 to 4 µg/mL (≈ 5.84 to 23.4 µM). For the same compound, the MIC ([13]; Parvimonas micra strain 2) was less than 1 µg/mL, the MIC ([13]; Parvimonas micra strain 3) was less than 1 µg/mL and the MIC ([13]; Parvimonas micra strain 4) was less than 1 µg/mL. For the same compound, the MIC ([13]; Parvimonas micra strain 5) was less than 1 µg/mL, the MIC ([13]; Parvimonas micra strain 6) was less than 1 µg/mL and the MIC ([13]; Parvimonas micra strain 7) was less than 1 µg/mL. For the same compound, the MIC ([13]; Parvimonas micra strain 8) was less than 1 µg/mL, the MIC ([13]; Parvimonas micra strain 9) was less than 1 µg/mL and the MIC ([13]; Parvimonas micra strain 10) was 1 to 4 µg/mL (≈ 5.84 to 23.4 µM). The MIC ([13]; Parvimonas micra strain 11) was less than 1 µg/mL and the MIC ([13]; Parvimonas micra strain 12) was less than 1 µg/mL.
